Tests used:
[1] = tested on: seven model proteins (Hb, GFP, BSA, β-Gal, IgG, TFN, URE); assay: Fluorochemical-mediated dispersion of test proteins into perfluorohexane; assay type: physicochemical; settings: PFNA-mediated, protein hydrodynamic radius 3.5 nm
Source text: Only the rabbit IgG Fc fragment is shown.
For PFAS amphiphiles, the combination of polar head group and fluorophilic tail additionally leads to their preferential assembly at water-fluorous interfaces. Based on these unique properties, it was speculated that PFAS compounds may noncovalently associate with proteins to mediate their phase separation into fluorous media. To test this, a screening assay was developed to qualitatively investigate the binding affinity of a library of perfluorinated chemicals with seven model proteins, which include human hemoglobin (Hb), green fluorescent protein (GFP), bovine serum albumin (BSA), (β-Galactosidase (β-Gal), rabbit serum immunoglobulin (IgG), bovine apo-transferrin (TFN), and urease (URE). This group of model proteins captures an array of physicochemical properties ranging in molecular weight, solvent accessible surface area (SASA), isoelectric point (pI), and hydrodynamic radii. A corresponding perfluorinated small molecule test set was selected to contain a plurality of functional groups, linear perfluorocarbon chain lengths, and cyclic or aromatic geometries (FIGS. 1-7). Selection of these compounds was based on their potential to form noncovalent bonds (i.e., hydrogen or ionic) with the solvent exposed protein surfaces. […] These three linear PFAS chemicals are currently regulated by the US Environmental Protection Agency based on their reproductive, immune, and hepatic toxicity (References: 44-46). In sum, the structural and biochemical diversity represented in the protein and fluorochemical libraries was rationally selected to allow structure-function-performance relationships to be ascertained from binding studies.

[2] = biological target: human hemoglobin (Hb) (Homo sapiens, UniProt P68871+P69905); assay: Circular dichroism with PFNA, Hb
Chain of human hemoglobin (Hb) (P69905 whole entry): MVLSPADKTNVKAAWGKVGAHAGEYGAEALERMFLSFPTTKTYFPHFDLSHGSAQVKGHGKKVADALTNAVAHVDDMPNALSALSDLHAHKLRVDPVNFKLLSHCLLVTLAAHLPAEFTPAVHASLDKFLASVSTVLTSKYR
Chain of human hemoglobin (Hb) (P68871 whole entry): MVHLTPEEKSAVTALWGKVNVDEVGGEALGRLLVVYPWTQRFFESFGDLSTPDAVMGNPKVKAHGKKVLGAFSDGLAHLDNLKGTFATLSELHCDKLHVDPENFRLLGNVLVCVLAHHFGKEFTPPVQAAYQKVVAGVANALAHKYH
Source text: (§1) FIGS. 14A-14L depict circular dichroism spectra of Hb (FIG. 14A), GFP (FIG. 14B), BSA (FIG. 14C), β-Gal (FIG. 14D), rabbit serum IgG (FIG. 14E), transferrin (FIG. 14F), and urease (FIG. 14G) in the absence (black line) or presence (dashed lines) of PFNA. Increasing dash sequence indicated higher concentration of PFNA. FIG. 14H: Change in molar ellipticity at 216 nm (Δθ216) of PFNA-treated proteins, relative to native controls, as a function of increasing ligand concentration. FIG. 14I: Percentage change in secondary structural motifs of Hb, β-Gal and IgG between the native protein and 1 mM PFNA treated samples. β-sheet structures were further differentiated into parallel and antiparallel conformations. Hb, β-Gal and IgG were prioritized for analysis based on their significant spectral shift in the presence of 1 mM PFNA. FIGS. 14J-14L: Sensograms for BSA (FIG. 14J), β-gal (FIG. 14K), and IgG (FIG. 14L) showing relative response (R.U.) at 10, 25, 50, 75, and 100 μM.
(§2) To explore PFNA-mediated changes in protein structure, dose-response circular dichroism (CD) studies were performed (FIG. 14A-14G). […] Remarkably, these structural changes endured even at sub-stoichiometric PFNA:protein ratios (see 0.001 mM PFNA in […]; protein concentration was constant at 0.01 mM).

[3] = tested on: rabbit serum IgG; assay: Circular dichroism with PFNA, rabbit serum IgG; settings: 0.001-1 mM PFNA
Source text: as §1, §2

[4] = Protein activity after elevated temperature exposure (Example 4); assay type: physicochemical
Experimental: A group of enzyme proteins, β-Gal and Trypsin was chosen for this study. β-Gal and Trypsin were diluted in PBS or dispersed in PFOc at 1 μM and 10 μM, respectively. Next, a subset of samples was subjected to elevated temperature condition (90 °C) well beyond their native denaturation temperature for 30 minutes. After that, samples were allowed to cool down to room temperature before retrieval. For PFOc samples, proteins were extracted into PBS before performing the ensuing assays. To determine the enzymatic activity, an equal volume of protein samples was added to their substrates dissolved in PBS (4 mg/mL ONPG for β-Gal or 1 mg/mL BAEE for Trypsin). After incubation, ONPG and BAEE substrate conversions were measured by taking absorbance using a microplate reader at 420 nm or 400 nm, respectively. In case of intrinsic fluorescence, GFP was similarly prepared, and heat treated. After GFP samples were retrieved, fluorescent intensity was taken at λex=490 nm, λem=520 nm. The change in protein activity was presented by normalizing to spectrometric readings of each protein dissolved in PBS without being subjected to heat (room temperature). […] This supports the assertion that the fluorous coating and solvent environments, together, serve to constrain the conformational flexibility of the dispersed protein and, as a result, increase its melting temperature.

[5] = tested on: urease; assay: Circular dichroism with PFNA, urease
Source text: as §1, §2

[6] = Temperature-dependent circular dichroism of proteins in PFOc or PBS (Example 4); assay type: physicochemical; settings: dispersed in PFOc using PD-7, heated up to 85 °C
Experimental: FIGS. 39A-39B depict temperature-dependent CD spectra of the indicated test protein solubilized in PFOc using the PD-7 dispersant, or PBS as a control.
FIG. 40 depicts the change in minimum CD ellipticity over the 40 °C-85 °C temperature interval for the indicated protein dissolved in either PBS or PFOc.
To determine structural integrity of proteins in aqueous and fluorinated environments at elevated temperatures, circular dichroism (CD) was used to probe secondary structure. Proteins were either diluted in PBS (aqueous) or dispersed in PFOc at the same designated concentrations according to protocol described above. For aqueous samples, dissolved proteins were heated between 40 °C to 90 °C, and their corresponding CD spectra at each temperature was measured. For PFOc samples, each of the PFOc dispersed proteins were subjected to heat treatment at 40, 55, 70, and 85 °C for 15 minutes. After that, dispersed proteins were eluted into PBS before having their CD spectra taken. Data is shown by representative ellipticity at each temperature depicted by distinct colors.

Row | Compound | protein dispersion [1] [%] | CD structural change, Hb ([2]; 0.001-0.1 mM PFNA) | CD structural change, Hb ([2]; 1 mM PFNA) | CD structural change, rabbit serum IgG [3] | retention of bioactivity / function at elevated temperature ([4]; proteins dispersed into fluorous solvent using the dispersant, up to 90 °C) | CD structural profile, urease [5] | change in secondary structure [6] | change in activity after heating ([4]; PFOc dispersed, 90 °C for 30 minutes) | loss of bioactivity after heating ([4]; saline, 90 °C for 30 minutes) [%]
1 | O=C(O)C(F)(F)C(F)(F)C(F)(F)C(F)(F)C(F)(F)C(F)(F)C(F)(F)C(F)(F)F [Compound 7, perfluoronanonic acid] | 60 | induced non-native α-helical structure | slight loss of signal | marked increase in β-sheet content | structured and functional at temperatures as high as 90 °C | remained largely unchanged |  |  | 
2 | β-Gal: β-Galactosidase (β-Gal), dissolved in PBS/saline or dispersed in PFOc |  |  |  |  |  |  | minimal changes in secondary structure | no statistically significant change in activity | > 90
